Data reported in patent publication US8106054B2, “Crystalline pyridazine compound” (priority 2007, dated 2012).
≈ marks a conversion by molar mass, not a printed value.

How the values were obtained:
[1] = Phase-1 first-in-human trial, pharmacokinetics; type: in vivo
From the text: A randomized, double-blind, placebo controlled trial was designed to evaluate the safety/tolerability, pharmacokinetics and antiviral activity of single (in Part A) and multiple (in Part B) doses of Compound (1) (oleic acid solution, above) in subjects chronically infected with HCV genotype 1 (GT-1) without decompensated cirrhosis.
In completed Part A, five successive cohorts of 6 subjects were randomized (5:1) to receive single ascending doses of Compound 1 (40, 120, 240, 240-with food, or 480 mg) or placebo. In ongoing Part B, four successive cohorts of 12 subjects are randomized (10:2) to receive multiple ascending doses of Compound 1 (40 mg BID, 120 mg BID, 240 mg QD, 240 mg BID) or placebo, over 8 days.

[2] = physchem; type: physicochemical; conditions: pH 2, aqueous buffer
[3] = design: species or system human; conditions: in vivo
[4] = test system: HCV genotype 1 (Con-1/lucneo) replicon; type: cell-based; conditions: 3 days, absence of HSA
Protocol: HCV genotype 1 (Con-1/lucneo) and 1a (H77/neo) replicon cells were incubated with serial dilutions of compound (1) 2′C-methyl adenosine (2′CMeA) or IFNα for 3 days in the absence or presence of 40 mg/mL human serum albumin (HSA).

| Compound | mean concentration 24 hours after dosing relative to protein binding adjusted in vitro HCV GT-1 replicon EC50 ([1]; 240 mg fasted single dose) [fold] | increase in systemic exposure with a high fat meal ([1]; single dose 240 mg with food vs fasted) | solubility [2] [µg/mL] | tolerability of single doses [3] | EC50 HCV 1-lucneo [4] [IU/mL] |
| --- | --- | --- | --- | --- | --- |
| Fc1ccccc1-c1nc2ccn(Cc3ccc(-c4ccc(C(F)(F)F)cc4C(F)(F)F)nn3)cc-2n1 [Compound 1, 5-((6-(2,4-Bis(trifluoromethyl)phenyl]pyridazin-3-yl)methyl)-2-(2-fluorophenyl)-5H-imidazo[4,5-c]pyridine] | ~7 | approximately 2 fold | 458 (≈ 885 µM) | well tolerated, with no serious or treatment-limiting adverse events (AEs) reported |  |
| IFN-α |  |  |  |  | 2 |
